Assay results reported in patent publication US20110223131A1, “ANTIVIRAL COMPOUNDS” (Gilead Sciences, Inc., priority 2010, published 2011).
Converted amounts (≈) assume the structure as drawn. “And” between values parts separate entries of the source, which are not always exact repeats. Equal values may be shown once. Read-outs that look alike come from different tables or passages of the source. Values belong to the molecule of their own block, whether it stands above or below them.

What was measured:
[1] = Cytotoxicity (CC50) in MT-2 cells; format: cell-based; settings: human
[2] = Aqueous solubility in buffers, HPLC-UV; format: physicochemical; settings: aqueous buffer, thermodynamic from solid, 24 to 48 hours
Procedure: Excess solid material was added to aqueous buffers at pH 2 and pH 7 in glass vials to form suspensions. The suspension was stirred on a stirrer plate with a magnetic stirrer bar at room temperature for periods of 24 to 48 hours. The suspension was filtered through a 0.22 micron PVDF syringe filters. The clear filtrate was diluted in acetonitrile and analyzed by HPLC-UV against an external standard for the compound concentration.

[3] = Cytotoxicity (CC50) in MT-4 cells; format: cell-based; settings: human
[4] = Oral bioavailability from crystalline suspension in dog (plasma PK, LC/MS/MS); format: in vivo, beagle dogs; settings: for bioavailability: read-out: F (oral bioavailability)
Procedure: Oral Bioavailability-Determination of Oral Bioavailability of Integrase Inhibitors from Crystalline Suspension in Dog The in-life phase of these studies was carried out at SRI, Menlo Park, Calif. Both Compound (Ia) and Comparator Compound were formulated in 0.5% HPMC […], 0.2% Tween 20, 0.9% benzyl alcohol, and 98.4% water. Both were at 2.00 mg/mL for oral dosing. Each dosing group consisted of 3 male, beagle dogs. At dosing, the animals weighed an average of 10.9 kgs for Compound (Ia) and 10.5 kgs for Comparator Compound. The animals were fasted overnight prior to dose administration and up to 4 hr after dosing. The dogs were pre-treated with pentagastrin at 30 minutes prior to dosing by IM injection. The Compound (Ia) suspension was administered by oral gavage at 1.5 mL/kg to deliver a total dose of 3 mg/kg, while the Comparator Compound suspension was administered by oral gavage at 2 mL/kg for a dose of 4 mg/kg. Serial venous blood samples (approximately 0.8-1.0 mL each) were taken at specified time points (range t=0 to t=24 hr) after dosing from each animal. The blood samples were collected into VacutainerTM tubes containing EDTA-K3 as the anti-coagulant and were immediately placed on wet ice pending centrifugation for plasma. Dosing solutions were analyzed using un-used portions of the dosing solutions, and aliquots of approximately 1 mL of each dosing solution were saved. The concentration of compound in the dosing solution was measured with an HPLC-UV method. Comparator Compound (nominal dose of 4 mg/kg) was dosed at 9387 nmoles/kg, while Compound (Ia) (nominal dose of 3 mg/kg) was dosed at 6563-6566 nmoles/kg. An LC/MS/MS method was used to measure the concentration of test compounds in plasma. Non-compartmental pharmacokinetic analysis was performed on the plasma concentration-time data. The bioanalytical method consisted of treating 100 μL of each plasma sample with 200 μL of acetonitrile (ACN) and 200 μL acetonitrile (ACN) containing internal standard. After protein precipitation and centrifugation, 100 μL of the supernatant was transferred to a clean 96-well plate and mixed with 100 μL of water. An aliquot of 10 μL of the above solution was injected onto an API-4000 triple quadrupole LC/MS/MS system. A Hypersil Gold (#25005-053030, Thermo Electron Corporation) column was used. Mobile phase A contained water with 0.1% formic acid and 1% IPA. Mobile phase B contained acetonitrile with 0.1% formic acid and 1% IPA.

HIV-IIIb [5] = assay: Antiviral assay in MT-2 / MT-4 cells infected with HIV-IIIb (CellTiter-Glo readout); format: cell-based; settings: Human immunodeficiency virus 1, MT4, 120 h, 5 days, cell line (MT-2 or MT-4) not printed in Table 1
Procedure: For the antiviral assay utilizing MT-2 cells, 50 μL of 2× test concentration of 5-fold serially diluted compound in culture medium with 10% FBS was added to each well of a 96-well plate (9 concentrations) in triplicate. MT-2 cells were infected with HIV-IIIb at a multiplicity of infection (m.o.i) of 0.01 for 3 hours. Fifty microliters of infected cell suspension in culture medium with 10% FBS (˜1.5×10^4 cells) was then added to each well containing 50 μL of diluted compound. The plates were then incubated at 37° C. for 5 days. For the antiviral assay utilizing MT-4 cells, 20 μL of 2× test concentration of 5-fold serially diluted compound in culture medium with 10% FBS was added to each well of a 384-well plate (7 concentrations) in triplicate. MT-4 cells were next mixed with HIV-IIIb at an m.o.i. of 0.1 and 20 μL of virus/cell mixture (˜2000 cells) was immediately added to each well containing 20 μL of diluted compound. The plates were then incubated at 37° C. for 5 days. After 5 days of incubation, 100 μL of CellTiter-Glo™ Reagent (catalog #G7571, Promega Biosciences, Inc., Madison, Wis.) was added to each well containing MT-2 cells and 40 μl to each well containing MT-4 cells. Cell lysis was carried out by incubating at room temperature for 10 min and then chemiluminescence was read.

HIV-IIIb [6] = settings: MT-2 cells; as reported in WO 2010/011959; cited from earlier work
[7] = PO 3 mg/kg suspension, dog plasma, individual dogs, 3 mg/kg
[8] = male, beagle, dog, plasma, po, 3 mg/kg, PO 3 mg/kg suspension, dog plasma, individual dogs
[9] = male, beagle, dog, plasma, po, 3 mg/kg, PO 3 mg/kg suspension, dog plasma, mean n = 3
[10] = PO 4 mg/kg suspension, dog plasma, individual dogs, 4 mg/kg
[11] = male, beagle, dog, plasma, po, 4 mg/kg, PO 4 mg/kg suspension, dog plasma, individual dogs

solubility ([2]; pH 2.2, room temperature): 0.0294 mg/mL (≈ 63.2 µM)
solubility ([2]; pH 7.3, room temperature): 0.0316 mg/mL (≈ 67.9 µM)
AUCinf [4, 7]: 14.413 µM·h and 21.913 µM·h
AUClast [4, 7]: 14.199 µM·h and 21.762 µM·h
Cmax [4, 7]: 2.5 µM and 4.24 µM
Tmax [4, 7]: 2.00 h
t1/2 [4, 7]: 4.88 h and 3.64 h
F (oral bioavailability) ([4]; PO 3 mg/kg suspension, dog, individual dogs, 3 mg/kg): 35.0% and 53.6%
F (oral bioavailability) ([4]; PO 3 mg/kg suspension, pentagastrin pretreated dogs, mean n = 3): 45.2%
CL ([4]; listed in table of PO 3 mg/kg suspension, dog plasma, individual dogs, 3 mg/kg): 0.17 L/hr/kg (2×) and 0.15 L/hr/kg
CL ([4]; listed in table of PO 3 mg/kg suspension, dog plasma, mean n = 3): 0.16 L/h/kg
AUC(0-inf) [4, 8]: 19.3 µM·h
Cmax [4, 8]: 3.16 µM
half-life [4, 8]: 4.16 h
AUC(0-t) ([4]; male, beagle, dog, plasma, po, 3 mg/kg, PO 3 mg/kg suspension, dog plasma, individual dogs, read-out: AUClast): 19.1 µM·h
Tmax ([4]; male, beagle, dog, plasma, po, 3 mg/kg, PO 3 mg/kg suspension, dog plasma, individual dogs, read-out: Tmax): 1 h
AUC(0-inf) [4, 9]: 18.6 µM·h
Cmax [4, 9]: 3.3 ± 0.878 µM
half-life [4, 9]: 4.22 h
AUC(0-t) ([4]; male, beagle, dog, plasma, po, 3 mg/kg, PO 3 mg/kg suspension, dog plasma, mean n = 3, read-out: AUClast): 18.3 µM·h
Tmax ([4]; male, beagle, dog, plasma, po, 3 mg/kg, PO 3 mg/kg suspension, dog plasma, mean n = 3, read-out: Tmax): ~1.33 h
bioavailability ([4]; male, beagle, dog, plasma, po, 3 mg/kg, PO 3 mg/kg suspension, dog, individual dogs): 47%
bioavailability ([4]; male, beagle, dog, plasma, po, 3 mg/kg, PO 3 mg/kg suspension, pentagastrin pretreated dogs, mean n = 3): 45%
EC50 (HIV-IIIb [5]): 0.0034 µM
Compound: CNC(=O)c1c(O)c2ncc(Cc3ccc(F)cc3)c3c2n(c1=O)C[C@](C)(c1nnc(C)o1)O3 [Compound (Ia)]
CC50 at 5 days [1]: 5.3 µM
CC50 at 5 days [3]: 42 µM

solubility ([2]; pH 2.2, room temperature): 0.001 mg/mL (≈ 2.35 µM)
solubility ([2]; pH 7.3, room temperature): 0.001 mg/mL (≈ 2.35 µM)
Cmax [4, 10]: 0.0585 µM and 0.0163 µM and 0.0113 µM
Tmax [4, 10]: 2.00 h
F (oral bioavailability) ([4]; PO 4 mg/kg suspension, dog, individual dogs, 4 mg/kg): 0.5% and 0.1% (2×)
CL ([4]; listed in table of PO 4 mg/kg suspension, dog plasma, mean n = 3): 0.15 L/h/kg
AUC(0-inf) ([4]; male, beagle, dog, plasma, po, 4 mg/kg, PO 4 mg/kg suspension, dog plasma, Mean column (only one dog calculable)): 0.427 µM·h
AUC(0-inf) [4, 11]: 0.427 µM·h
half-life [4, 11]: 2.97 h
Tmax ([4]; male, beagle, dog, plasma, po, 4 mg/kg, PO 4 mg/kg suspension, dog plasma, individual dogs, read-out: Tmax): 4 h
Cmax ([4]; male, beagle, dog, plasma, po, 4 mg/kg, PO 4 mg/kg suspension, dog plasma, mean n = 3): 0.0287 ± 0.0259 µM
AUC(0-t) ([4]; male, beagle, dog, plasma, po, 4 mg/kg, PO 4 mg/kg suspension, dog plasma, mean n = 3, read-out: AUClast (AUC0-t)): 0.177 ± 0.181 µM·h
Tmax ([4]; male, beagle, dog, plasma, po, 4 mg/kg, PO 4 mg/kg suspension, dog plasma, mean n = 3, read-out: Tmax): 2.67 h
bioavailability ([4]; male, beagle, dog, plasma, po, 4 mg/kg, PO 4 mg/kg suspension, pentagastrin pretreated dogs, mean n = 3): 0.2%
Compound: CNC(=O)c1c(O)c2ncc(Cc3ccc(F)cc3)c3c2n(c1=O)C[C@H](C(=O)NC)O3 [Comparator Compound, reference compound]
EC50 (HIV-IIIb [6]): 0.0068 µM
AUClast [4, 10]: 0.385 µM·h and 0.0898 µM·h and 0.0552 µM·h
CL ([4]; listed in table of PO 4 mg/kg suspension, dog plasma, individual dogs, 4 mg/kg): 0.13 L/h/kg and 0.14 L/h/kg and 0.19 L/h/kg
